The subject of test [1] is secreted phospholipase B (PLB activity). In words: Radiometric assay, secreted PLB activity. The format is biochemical, Cryptococcus neoformans H99. In a few lines: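 Secreted enzyme was taken from cell-free supernatant of Cryptococcus isolate H99 cells incubated 24 h at 37° C. Reactions at 37° C, pH 4.0 imidazole acetate, used 800 μM DPPC with [14C]-dipalmitoyl PC and 1 μg protein for 22 min. PLB was measured as radiolabelled PC loss by TLC, with inhibition expressed versus inhibitor-free control; compounds were tested at 25 and 250 μM, then 2.5 and 0.25 μM.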

The test system of test [2] is secreted phospholipase B (LPL/LPTA activities). In words: Radiometric assay, secreted LPL and LPTA activities (Lyso assay). The format is biochemical, Cryptococcus neoformans H99. In a few lines:
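Cell-free supernatant from C. neoformans H99 (incubated 24 h at 37° C in imidazole buffer, pH 5.5) with 1 μg total protein and 200 μM lyso-PC incl. 1-[^14C]palmitoyl lyso-PC, 15 s reaction. LPL from substrate loss, LPTA from radiolabelled PC formed, after extraction and TLC; inhibitors tested at 25 and 250 μM, then 2.5 and 0.25 μM, inhibition vs inhibitor-free control, triplicate.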

The subject of test [3] is Candida albicans ATCC 10231. In words: Antifungal susceptibility testing, microdilution MIC. The format is cell-based. The conditions noted are these: Candida albicans, ATCC10231; Table 7; read-out: MIC (μM) C. alb. (10231). In short, it runs like this:
(§1)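 Standard microdilution method, run in duplicate, using serial dilutions of cationic compounds.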

In test [4] the test system is Cryptococcus neoformans ATCC 90112. Described as above. The format is cell-based. To be noted: Cryptococcus neoformans, ATCC90112; Table 7; read-out: MIC (μM) Crypto. (ATCC 90112). In short, it runs like this:
as §1

Test [5] relates to MRSA (methicillin resistant S. aureus). In words: In vitro antibacterial activity, NCCLS M7-A6. The format is cell-based. To be noted: Staphylococcus aureus, read-out: MIC MRSA (methicillin resistant S. aureus). How it is done: (§2) Two bis-cationic compounds were tested for antibacterial activity. The assay used was that published by the National Committee for Clinical Laboratory Standards. 2003. Methods for Dilution Antimicrobial Susceptibility Tests for Bacteria That Grow Aerobically: Approved Standard—Sixth Edition. NCCLS document M7-A6. Villanova, Pa., USA.

The test system of test [6] is Pseudomonas ariginosa 122. In words: In vitro antibacterial activity, NCCLS M7-A6. The format is cell-based. The procedure: as §2
The subject of test [7] is VRE (Vancomycin resistant Enterococcus). In words: In vitro antibacterial activity, NCCLS M7-A6. The format is cell-based. The procedure: as §2
The test system of test [8] is Aspergillus flavus ATCC 204 304. In words: In vitro antifungal activity, filamentous fungi, NCCLS M38-A. The format is cell-based. The conditions noted are these: Aspergillus flavus, ATCC204. The source says: (§3) The assay used for filamentous fungi (Aspergillus; Scedosporium; Fusarium) was that published by the National Committee for Clinical Laboratory Standards. 2002. Reference Method for Broth Dilution Antifungal Susceptibility Testing of Filamentous Fungi: Approved Standard. NCCLS document M38-A.Villanova, Pa., USA.

The subject of test [9] is Aspergillus fumigatus ATCC 204 305. Described as above. The format is cell-based. To be noted: Aspergillus fumigatus, ATCC204.
Excerpt: as §3

The subject of test [10] is Aspergillus terreus ATCC 03-232-378. The description is as above. The format is cell-based. To be noted: Aspergillus terreus, ATCC03.
Excerpt: as §3

In test [11] the test system is Fusarium solani 04-132-4207. Described as above. The format is cell-based. The conditions noted are these: Fusarium solani, 041324207.
Excerpt: as §3

For test [12], the system named is Scedosporium apiospermum 1-003-056. The test is described as above. The conditions noted are these: Scedosporium apiospermum, 1003056. The format is cell-based.
Excerpt: as §3

Test [13] deals with Scedosporium prolificans 1-003-040. The test is described as above. To be noted: Lomentospora prolificans, 1003040. The format is cell-based.
Excerpt: as §3

Test [14] deals with Candida albicans ATCC 10231. In words: In vitro antifungal activity, yeasts, NCCLS M27-A. The format is cell-based. The conditions noted are these: Candida albicans, ATCC10231; Table 9. The source says:
(§4) The assay used for yeasts (Candida; Cryptococcus) is that of the National Committee for Clinical Laboratory Standards. 1997. Reference Method for Broth Dilution Antifungal Susceptibility Testing of Yeasts: Approved Standard. NCCLS document M27-A.Villanova, Pa., USA as published in Ghannoum, M. A., A. S. Ibrahim, Y. Fu, M. C. Shafiq, J. E Edwards, Jr. and R. S. Criddle. 1992. Susceptibility testing of Cryptococcus neoformans: A microdilution technique. J. Clin. Microbiol. 30:2881-2886.

Test [15] deals with Cryptococcus neoformans ATCC 90112. In words: In vitro antifungal activity, yeasts, NCCLS M27-A. The format is cell-based. To be noted: Cryptococcus neoformans, ATCC90112; Table 9.
Excerpt: as §4

Values joined by “and” are separate entries in the source; they are usually repeats but may differ in a detail not shown here. Identical values can stand only once.

On to `CCCC[N+](CCCC)(CCCC)CCCCCCCCCCCCCCCC[N+](CCCC)(CCCC)CCCC` [1,16-bis-(tributylammonium)hexadecane], for which the “PLB assay (% inhibition)” value in [1] (25 μM) amounted to 48%; in test [1] (250 μM), 62%. Moreover, the “Lyso assay (% inhibition) LPL” value in test [2] (25 μM) stood at 5%; in [2] (250 μM), 10%. In addition, the “Lyso assay (% inhibition) LPTA” value was found to be 15% in test [2] (25 μM) and 6% in [2] (250 μM). Besides, the minimal inhibitory concentration (MIC) in test [3] was 5.5 µM; in test [4] it was 2.2 µM; in test [5], 5 µg/mL and 11 µM; in [6] it was 106 µg/mL and 160 µM; in test [7], 3.6 µg/mL and 5.5 µM; in [8], 14.6 µg/mL and 22 µM. Further, the MIC in test [9] was 7.3 µg/mL and 11 µM; in test [10] it was 7.3 µg/mL and 11 µM; in test [11], 14.6 µg/mL and 22 µM; in test [12] it was 3.6 µg/mL and 5.5 µM; in test [13], 7.3 µg/mL and 11 µM; in [14] it was 7.2 µg/mL and 11 µM. Moreover, the MIC in test [15] is 3.6 µg/mL and 5.5 µM.
